The values below come from ChEMBL document CHEMBL4321837, “Discovery of Potent and Orally Effective Dual Janus Kinase 2/FLT3 Inhibitors for the Treatment of Acute Myelogenous Leukemia and Myeloproliferative Neoplasms” (J Med Chem, 2019).

For orientation: IC50 means the concentration needed to halve the response being measured. The term half-life denotes how long it takes for the measured level to halve.

The subject of series [1] is MV4-11. The series is described as follows: Induction of apoptosis in human MV4-11 cells assessed as late apoptotic cells at 0.05 uM after 24 hrs by Annexin V FITC/PI staining based flow cytometry analysis (reference value: 1.38%). It is filed as functional.
The subject of series [2] is SET-2. The series is described as follows: Antitumor activity against human SET2 cells overexpressing JAK2 V617F mutant xenografted in NOD/SCID mouse assessed as tumor growth inhibition at 60 mg/kg, po qd for 18 days measured every 2 days for 18 days by caliper method relative to control. Format: functional. Particulars: SET-2, po, read-out: TGI. (In general: A xenograft is tissue or cells of one species grown in another, often human tumour cells in immunodeficient mice.)

The nature of series [3]: Anti-myelofibrosis activity against mouse BAF3(transformed) cells harboring with JAK2 V617F mutant allografted in NOD/SCID mouse assessed as reduction in spleen weight at 60 mg/kg, po qd for 20 days measured on day 25 relative to control. It is filed as functional.
Series [4] has as its system MV4-11. Briefly: Induction of apoptosis in human MV4-11 cells assessed as viable cells at 0.2 uM after 24 hrs by Annexin V FITC/PI staining based flow cytometry analysis (reference value: 96.3%). It is filed as functional. Particulars: MV4-11, 24 h, read-out: Activity.
Series [5] has as its system L02. The series is described as follows: Cytotoxicity against human LO2 cells assessed as cell viability after 72 hrs by MTT assay. Format: cell-based. Particulars: l02, 72 h. A general note: Tetrazolium assays rely on reduction of a dye to a coloured formazan, in cell work by metabolically active cells.
Series [6] deals with IEC-6. The series is described as follows: Cytotoxicity against rat IEC-6 cells assessed as cell viability after 72 hrs by MTT assay. Particulars: iec-6, 72 h. Format: cell-based.
In series [7] the test system is MDA-MB-231. Briefly: Antiproliferative activity against human MDA-MB-231 cells assessed as reduction in cell growth after 72 hrs by MTT assay. Format: functional, cell-based.
Series [8] has as its system HUVEC. Briefly: Cytotoxicity against HUVEC assessed as cell viability after 72 hrs by MTT assay. It is filed as cell-based. To be noted: human.
Series [9] concerns MV4-11. Briefly: Induction of apoptosis in human MV4-11 cells after 24 hrs by Annexin V FITC/PI staining based flow cytometry analysis. It is filed as functional, cell-based. On the technique in general: In flow cytometry, cells or beads pass a laser one at a time.
The species named for series [10] is Homo sapiens. The series is described as follows: Inhibition of JAK2 V617F mutant/FLT3 in human SET2 cells assessed as reduction in FLT3 phosphorylation after 2 hrs by Western blot analysis. Format: cell-based.
Series [11] deals with MV4-11. Briefly: Antiproliferative activity against FLT3-ITD-positive human MV4-11 cells assessed as reduction in cell growth after 72 hrs by MTT assay. It is filed as functional, cell-based. To be noted: MV4-11, 72 h.
The species named for series [12] is Homo sapiens. Briefly: Inhibition of JAK2 V617F mutant/FLT3 in human SET2 cells assessed as reduction in JAK2 phosphorylation at 0.2 uM after 2 hrs by Western blot analysis. It is filed as cell-based.
Series [13] deals with Cytochrome P450 3A4 (Homo sapiens, UniProt P08684). The series is described as follows: Inhibition of CYP3A4 (unknown origin). It is filed as ADME.
Cytochrome P450 3A4, sequence (P08684 whole entry): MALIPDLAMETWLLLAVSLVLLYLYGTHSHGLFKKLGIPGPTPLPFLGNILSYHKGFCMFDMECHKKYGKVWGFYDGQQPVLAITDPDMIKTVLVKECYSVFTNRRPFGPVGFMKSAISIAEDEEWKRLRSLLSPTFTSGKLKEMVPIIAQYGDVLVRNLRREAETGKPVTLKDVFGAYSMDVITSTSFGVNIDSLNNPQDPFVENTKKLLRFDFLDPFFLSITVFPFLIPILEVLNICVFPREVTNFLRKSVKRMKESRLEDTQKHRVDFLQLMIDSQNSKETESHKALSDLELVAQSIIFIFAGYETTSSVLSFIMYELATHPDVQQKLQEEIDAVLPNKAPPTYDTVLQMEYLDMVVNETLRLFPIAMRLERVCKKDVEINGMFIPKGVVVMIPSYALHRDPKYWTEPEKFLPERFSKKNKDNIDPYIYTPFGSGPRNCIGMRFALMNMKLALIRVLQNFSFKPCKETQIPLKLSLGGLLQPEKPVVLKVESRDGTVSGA
Series [14] deals with SET-2. The series is described as follows: Antitumor activity against human SET2 cells overexpressing JAK2 V617F mutant xenografted in NOD/SCID mouse assessed as tumor growth inhibition at 30 mg/kg, po qd for 18 days measured every 2 days for 18 days by caliper method relative to control. It is filed as functional. To be noted: SET-2, po, read-out: TGI.
The subject of series [15] is MV4-11. Briefly: Antitumor activity against FLT3-ITD-positive human MV4-11 cells xenografted in NOD/SCID mouse assessed as tumor growth inhibition at 30 mg/kg, po qd for 14 days measured every 2 days for 14 days by caliper method relative to control. It is filed as functional. Particulars: MV4-11, po, read-out: TGI.
Series [16] has as its system MV4-11. Briefly: Induction of cell cycle arrest in human MV4-11 cells assessed as accumulation at S phase at 0.005 uM after 24 hrs by propidium iodide staining based flow cytometry analysis (reference value: 30.11%). It is filed as functional.
Series [17] can be described thus: Intrinsic clearance in human liver microsomes. It is filed as ADME, Microsome.
The subject of series [18] is MV4-11. Briefly: Induction of cell cycle arrest in human MV4-11 cells assessed as accumulation at S phase at 0.1 uM after 24 hrs by propidium iodide staining based flow cytometry analysis (reference value: 30.11%). Format: functional.
Series [19] concerns the target Vascular endothelial growth factor receptor 1 (Homo sapiens, UniProt P17948). The series is described as follows: Inhibition of recombinant human FLT1 (783 to end residues) using KKKSPGEYVNIEF as substrate incubated for 40 mins in presence of [gamma33P]-ATP by scintillation counting based radiometry assay.
Series [20] deals with Cytochrome P450 2D6 (Homo sapiens, UniProt P10635). The series is described as follows: Inhibition of CYP2D6 (unknown origin). It is filed as ADME.
Cytochrome P450 2D6, sequence (P10635 whole entry): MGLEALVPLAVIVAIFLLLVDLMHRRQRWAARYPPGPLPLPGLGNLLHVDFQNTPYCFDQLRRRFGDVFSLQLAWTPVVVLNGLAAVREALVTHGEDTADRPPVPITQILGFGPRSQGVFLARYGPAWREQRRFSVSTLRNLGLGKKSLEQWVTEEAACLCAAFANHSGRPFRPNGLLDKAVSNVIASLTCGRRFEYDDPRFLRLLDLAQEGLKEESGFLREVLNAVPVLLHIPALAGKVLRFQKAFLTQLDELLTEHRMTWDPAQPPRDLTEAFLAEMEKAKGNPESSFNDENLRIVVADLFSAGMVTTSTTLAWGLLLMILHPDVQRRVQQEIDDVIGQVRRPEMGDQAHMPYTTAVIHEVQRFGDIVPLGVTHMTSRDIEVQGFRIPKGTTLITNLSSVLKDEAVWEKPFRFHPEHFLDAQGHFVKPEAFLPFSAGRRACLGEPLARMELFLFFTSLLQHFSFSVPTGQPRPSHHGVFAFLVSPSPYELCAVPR
The nature of series [21]: Half life in monkey liver microsomes. Particulars: rhesus monkey. It is filed as ADME, Macaca mulatta, Microsome.
Series [22] has as its system MV4-11. Briefly: Induction of apoptosis in human MV4-11 cells assessed as necrotic cells at 0.2 uM after 24 hrs by Annexin V FITC/PI staining based flow cytometry analysis (reference value: 0.18%). It is filed as functional.
For series [23], the system named is MV4-11. Briefly: Inhibition of JAK2/FLT3 ITD mutant in human MV4-11 cells assessed as reduction in JAK2 phosphorylation at 0.2 uM after 2 hrs by Western blot analysis. Format: cell-based.

Calls of active or inactive are those of the source. No cut-off for these calls is given here.

Vascular endothelial growth factor receptor 1, sequence (P17948 whole entry): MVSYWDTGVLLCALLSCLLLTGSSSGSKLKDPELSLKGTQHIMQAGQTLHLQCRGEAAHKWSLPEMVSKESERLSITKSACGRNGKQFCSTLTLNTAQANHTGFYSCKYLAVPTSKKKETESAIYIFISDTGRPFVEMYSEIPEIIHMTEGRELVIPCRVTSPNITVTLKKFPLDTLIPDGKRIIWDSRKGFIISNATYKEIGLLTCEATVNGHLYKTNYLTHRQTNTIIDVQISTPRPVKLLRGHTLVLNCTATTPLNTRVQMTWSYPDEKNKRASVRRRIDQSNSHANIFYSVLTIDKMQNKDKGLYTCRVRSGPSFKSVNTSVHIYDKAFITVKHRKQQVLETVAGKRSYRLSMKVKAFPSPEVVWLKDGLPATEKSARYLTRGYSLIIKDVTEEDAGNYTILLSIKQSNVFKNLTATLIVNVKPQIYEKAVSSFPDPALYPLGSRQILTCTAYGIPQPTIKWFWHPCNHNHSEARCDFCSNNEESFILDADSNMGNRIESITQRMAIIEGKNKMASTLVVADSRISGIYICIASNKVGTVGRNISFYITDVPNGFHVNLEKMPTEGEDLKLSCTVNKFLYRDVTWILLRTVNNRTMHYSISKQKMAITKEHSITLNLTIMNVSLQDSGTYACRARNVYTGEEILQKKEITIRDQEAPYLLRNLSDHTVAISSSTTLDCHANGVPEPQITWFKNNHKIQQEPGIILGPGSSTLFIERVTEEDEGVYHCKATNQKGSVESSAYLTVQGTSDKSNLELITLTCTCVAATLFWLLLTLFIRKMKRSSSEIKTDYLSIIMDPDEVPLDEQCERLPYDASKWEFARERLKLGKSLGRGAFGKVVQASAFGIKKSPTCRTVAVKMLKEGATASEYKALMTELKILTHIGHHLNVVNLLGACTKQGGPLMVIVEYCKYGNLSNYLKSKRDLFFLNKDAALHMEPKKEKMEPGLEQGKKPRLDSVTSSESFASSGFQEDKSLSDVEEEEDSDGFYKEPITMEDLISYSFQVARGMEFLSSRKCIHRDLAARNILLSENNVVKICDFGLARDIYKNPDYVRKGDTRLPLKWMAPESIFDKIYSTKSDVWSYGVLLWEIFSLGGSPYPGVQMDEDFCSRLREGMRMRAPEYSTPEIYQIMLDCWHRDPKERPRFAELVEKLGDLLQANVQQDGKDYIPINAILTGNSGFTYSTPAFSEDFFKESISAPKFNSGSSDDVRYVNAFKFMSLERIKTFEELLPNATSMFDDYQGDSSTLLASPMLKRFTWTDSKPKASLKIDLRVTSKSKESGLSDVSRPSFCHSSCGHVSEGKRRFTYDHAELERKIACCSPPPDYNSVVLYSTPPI

Regarding `Cc1cnc(Nc2ccc(N3CCC(N(C)CCO)CC3)c(F)c2)nc1-c1cnn(C(C)C)c1`, the Activity is 4.55% in [1]; “Non-Toxic” in [5]; “Non-Toxic” in [6]; “Non-Toxic” in [8]; “Dose-dependent effect” in [9]; 28.22% in series [16]. Moreover, the Activity in [18] was found to be 10.26%; in [22] it was 0.75%. Further, the inhibition in vivo at 60 mg/kg in [2] came out at 85%; in series [3], 59.5%. The viability at 0.2 µM in [4] turned out to be 77.4%. In series [7], the outcome was Active. Besides, the inhibition result in series [10] was “Dose-dependent effect”. Moreover, the IC50 in [11] was 5.3 nM; in series [13] it was more than 100 µM; in series [19], 22 nM; in [20] it was more than 100 µM. The inhibition result in series [12] and in series [23] was “Active” each time. The inhibition in vivo at 30 mg/kg in series [14] is 66%; in series [15], 58%. The compound also came in with a CLH in series [17] of 0.0024 mL/min/mg. In addition, the half-life in series [21] was determined as 1390 min.
